Data on 25 compounds can be found in US20100190824A1, “Novel Substituted Piperidones as HSP Inducers” (priority 2007, published 2010).

Assay [1] has as its system HSP70b mRNA. As to the kind of experiment: Cellular expression of HSP-70 mRNA in Hela cells (real-time PCR). The assay is classed as cell-based. Conditions: fold induction of HSP-70b mRNA relative to the vehicle treated control; 4 hours; normalized to 18S rRNA. As to the method: (§1) Experiments set forth in this section were conducted to determine whether the compounds of the present invention are able to elevate the expression of HSP-70 gene in cells.
(§2) Hela cell-line or primary mixed neurons derived from neonatal rat cerebellum were employed. Induction was carried out for the indicated dose(s) for 4 hours duration and total RNA was isolated. Expression of HSP70b mRNA along-with expression of 18S rRNA was monitored by real-time PCR. HSP70b mRNA expression was normalized relative to the expression of 18S rRNA.
(§3) The results for test compounds were expressed as fold induction of HSP-70 mRNA relative to vehicle treated control and are as shown in Table 2 & 3.

Assay [2] has as its system HSP70b mRNA. The assay is described as follows: Cellular expression of HSP-70 mRNA in primary mixed neurons (real-time PCR). To be noted: fold induction of HSP70b mRNA relative to vehicle treated control; primary mixed neurons from neonatal rat cerebellum; 4 hours; normalized to 18S rRNA. The assay is classed as cell-based. The procedure: as §1, §2, §3
On the technique in general: In qPCR the cycle at which signal appears reflects the starting amount.

The subject of the next assay is TNF-α mRNA. The assay is described as follows: Inhibition of LPS-induced TNF-α expression in PMA differentiated THP-1 cells. In kind it is cell-based, Human. To be noted: LPS (1 ug/ml) and compound for 4 hours, LPS alone as 100%. As to the method:
The purpose of the present study was to determine the inhibition of lipopolysaccharide(LPS)-induced TNF-α expression in phorbol merstyl ester (PMA) differentiated THP-1 cells.
Human monocytic leukaemia cell line (THP-1), differentiated into macrophage-like cells by PMA treatment was employed. Differentiated cells were treated with either LPS (1 ug/ml) alone or with LPS (1 ug/ml) and compound for 4 hours. Total RNA was isolated and expression of TNF-αmRNA along-with expression of 18S rRNA was monitored by real-time PCR. TNF-α mRNA expression was normalized relative to the expression of 18S rRNA Considering TNF-α expression for cells treated with LPS alone as 100%; the results for test compounds were expressed as % inhibition of TNF-α expression and are as shown in Table 4

The structures appear in SMILES notation.

For `CCOC(=O)N1CC(=Cc2ccccn2)C(=O)C(C)(C)C1Cc1ccc(OC)cc1` (centres unmarked) [Compound 13, 2-(4-Methoxy-benzyl)-3,3-dimethyl-4-oxo-5-[1-pyridin-2-yl-methylidene]-piperidine-1-carboxylic acid ethyl ester], the “HSP Induction in Hela cells” value in the assay on HSP70b mRNA [1] is on record as “(+++) (193-1536 fold)”.

`COc1ccc(CC2N(C(=O)Oc3ccccc3)CC(=Cc3ccccn3)C(=O)C2(C)C)cc1` (centres unmarked) [Compound 14, 2-(4-Methoxy-benzyl)-3,3-dimethyl-4-oxo-5-[1-pyridin-2-yl-methylidene]-piperidine-1-carboxylic acid phenyl ester]: the “HSP Induction in Hela cells” value in the assay on HSP70b mRNA [1] is on record as “(+++) (193-1536 fold)”.

On to `COc1ccc(CC2N(C(=O)OCC(C)C)CC(=Cc3ccccn3)C(=O)C2(C)C)cc1` (centres unmarked) [Compound 15, 2-(4-Methoxy-benzyl)-3,3-dimethyl-4-oxo-5-[1-pyridin-2-yl-methylidene]-piperidine-1-carboxylic acid isobutyl ester], for which the “HSP Induction in Hela cells” value in the assay with HSP70b mRNA [1] is “(++++) (>1536 fold)”.

For `COc1ccc(CC2N(C(=O)Nc3c(C)cccc3C)CC(=Cc3ccccn3)C(=O)C2(C)C)cc1` (centres unmarked) [Compound 17, 2-(4-Methoxy-benzyl)-3,3-dimethyl-4-oxo-5-[1-pyridin-2-yl-methylidene]-piperidine-1-carboxylic acid (2,6-dimethyl-phenyl)-amde], the “HSP Induction in Hela cells” value with HSP70b mRNA [1] is listed as “(++) (25-192 fold)”.

For the compound `CC1(C)CN(Cc2ccccc2)CC(=Cc2cccc(N3CCCCC3)n2)C1=O` [Compound 23, 1-Benzyl-3,3-dimethyl-5-[1-(3,4,5,6-tetrahydro-2H-[1,2′]bipyridinyl-6′-yl)-methylidene]-piperidin-4-one], in the assay on HSP70b mRNA [1], the “HSP Induction in Hela cells” value was “(+++) (193-1536 fold)”.

As for `CC1(C)CN(Cc2ccccc2)C(c2ccccc2)C(=Cc2ccccn2)C1=O` (centres unmarked) [Compound 25, 1-Benzyl-5,5-dimethyl-2-phenyl-3-[1-pyridin-2-yl-methylidene]-piperidin-4-one], the “HSP Induction in Hela cells” value in the assay with HSP70b mRNA [1] is reported as “(++++) (>1536 fold)”.

As to `CC1(C)CN(Cc2ccccc2)C(c2ccccn2)C(=Cc2cccc(N3CCOCC3)n2)C1=O` (centres unmarked) [Compound 28, 1-Benzyl-5,5-dimethyl-3-[1-(6-morpholin-4-yl-pyridin-2-yl)-methylidene]-2,3,5,6-tetrahydro-1H-[2,2′]bipyridinyl-4-one], the “HSP Induction in Hela cells” value in the assay with HSP70b mRNA [1] is “(++++) (>1536 fold)”.

As to `CC1(C)CN(Cc2ccccc2)C(c2ccccn2)C(=Cc2ccccn2)C1=O` (centres unmarked) [Compound 29, 1-Benzyl-5,5-dimethyl-3-[1-pyridin-2-yl-methylidene]-2,3,5,6-tetrahydro-1H-[2,2′]bipyridinyl-4-one], the “HSP Induction in Hela cells” value with HSP70b mRNA [1] was “(+++) (193-1536 fold)”.

Consider `CSc1ccc(C=C2C(=O)C(C)(C)CN(Cc3ccccc3)C2c2ccccc2)cc1` (centres unmarked) [Compound 30, 1-Benzyl-5,5-dimethyl-3-[1-(4-methylsulfanyl-phenyl)-methylidene]-2-phenyl-piperidin-4-one], for which the “HSP Induction in Hela cells” value in the assay on HSP70b mRNA [1] is “(+) (4-24 fold)”.

Consider `CC1(C)CN(Cc2ccccc2)C(c2ccccc2)C(=Cc2cccc(N3CCOCC3)n2)C1=O` (centres unmarked) [Compound 31, 1-Benzyl-5,5-dimethyl-3-[1-(6-morpholin-4-yl-pyridin-2-yl)-methylidene]-2-phenyl-piperidin-4-one], for which the “HSP Induction in Hela cells” value with HSP70b mRNA [1] is “(++) (25-192 fold)”.

For `CC1(C)CN(Cc2ccccc2)C(c2cccs2)C(=Cc2cccc(N3CCOCC3)n2)C1=O` (centres unmarked) [Compound 33, 1-Benzyl-5,5-dimethyl-3-[1-(6-morpholin-4-yl-pyridin-2-yl)-methylidene]-2-thiophen-2-yl-piperidin-4-one], in the assay on HSP70b mRNA [1], the “HSP Induction in Hela cells” value is reported as “(+++) (193-1536 fold)”.

On to `CC1(C)CN(Cc2ccccc2)C(c2ccccn2)C(=Cc2cccc(N3CCCCC3)n2)C1=O` (centres unmarked) [Compound 34, 1-Benzyl-5,5-dimethyl-3-[1-(3,4,5,6-tetrahydro-2H-[1,2′]bipyridinyl-6′-yl)-methylidene]-2,3,5,6-tetrahydro-1H-[2,2′]bipyridinyl-4-one], for which, in the assay with HSP70b mRNA [1], the “HSP Induction in Hela cells” value is reported as “(++) (25-192 fold)”.

As to `CC1(C)CN(C(=O)Oc2ccccc2)CC(=Cc2cccc(N3CCCCC3)n2)C1=O` [Compound 35, 3,3-Dimethyl-4-oxo-5-[1-(3,4,5,6-tetrahydro-2H-[1,2′]bipyridinyl-6′-yl)-methylidene]-piperidine-1-carboxylic acid phenyl ester], the “HSP Induction in Hela cells” value in the assay on HSP70b mRNA [1] was “(++++) (>1536 fold)”.

With `CC1(C)CN(C(=O)Oc2ccccc2)CC(=Cc2cccc(N3CCOCC3)n2)C1=O` [Compound 36, 3,3-Dimethyl-5-[1-(6-morpholin-4-yl-pyridin-2-yl)-methylidene]-4-oxo-piperidine-1-carboxylic acid phenyl ester], the “HSP Induction in Hela cells” value in the assay on HSP70b mRNA [1] was “(++++) (>1536 fold)”.

On to `CC1(C)CN(Cc2ccccc2)CC(=Cc2nc3ccccc3c(=O)[nH]2)C1=O` [Compound 37, 2-[1-Benzyl-5,5-dimethyl-4-oxo-piperidin-3-ylidenemethyl]-3H-quinazolin-4-one], for which the “HSP Induction in Hela cells” value in the assay on HSP70b mRNA [1] is on record as “(++++) (>1536 fold)”.

Take `CC1(C)CN(CCc2cccs2)CC(=Cc2cccc(N3CCOCC3)n2)C1=O` [Compound 69, 3,3-Dimethyl-5-[1-(6-morpholin-4-yl-pyridin-2-yl)-methylidene]-1-(2-thiophen-2-yl-ethyl)-piperidin-4-one]: the “HSP Induction in mixed neuron” value in the assay on HSP70b mRNA [2] is “(++++) (>16 fold)”. Further, in the assay on TNF-α mRNA, the “TNF-alpha Inhibition” value was “(+++) (61-80%)”.

As for `CC1(C)CN(CCc2cccs2)CC(=Cc2ccccn2)C1=O` [Compound 79, 3,3-Dimethyl-5-[1-pyridin-2-yl-methylidene]-1-(2-thiophen-2-yl-ethyl)-piperidin-4-one], the “HSP Induction in mixed neuron” value in the assay with HSP70b mRNA [2] is “(+++) (9-16 fold)”. For the same compound, in the assay on TNF-α mRNA, the “TNF-alpha Inhibition” value is listed as “(++++) (>80%)”.

Take `CC1(C)CN(Cc2ccco2)C(c2ccccc2)C(=Cc2ccccn2)C1=O` (centres unmarked) [Compound 82, 1-Furan-2-ylmethyl-5,5-dimethyl-2-phenyl-3-[1-pyridin-2-yl-methylidene]-piperidin-4-one]: the “HSP Induction in mixed neuron” value in the assay with HSP70b mRNA [2] is on record as “(+++) (9-16 fold)”. Also, the “TNF-alpha Inhibition” value with TNF-α mRNA is reported as “(++++) (>80%)”.

Take `CN1CC(C)(C)C(=O)C(=Cc2ccccn2)C1c1ccccc1` (centres unmarked) [Compound 85, 1,5,5-Trimethyl-2-phenyl-3-[1-pyridin-2-yl-methylidene]-piperidin-4-one]: the “HSP Induction in mixed neuron” value in the assay on HSP70b mRNA [2] was “(++) (5-8 fold)”. Moreover, the “TNF-alpha Inhibition” value in the assay on TNF-α mRNA is “(+) (21-40%)”.

Take `COc1cc(C2C(=Cc3ccccn3)C(=O)C(C)(C)CN2Cc2ccco2)cc(OC)c1OC` (centres unmarked) [Compound 90, 1-Furan-2-ylmethyl-5,5-dimethyl-3-[1-pyridin-2-yl-methylidene]-2-(3,4,5-trimethoxy-phenyl)-piperidin-4-one]: in the assay with HSP70b mRNA [2], the “HSP Induction in mixed neuron” value is recorded as “(+) (2-4 fold)”. The “TNF-alpha Inhibition” value in the assay on TNF-α mRNA is given as “(++) (41-60%)”.

On to `O=C1C(=Cc2cccc(N3CCOCC3)n2)C(=O)N(Cc2ccccc2)CC1c1ccccc1` (centres unmarked) [Compound 103, 1-Benzyl-3-[1-(6-morpholin-4-yl-pyridin-2-yl)-methylidene]-5-phenyl-piperidine-2,4-dione], for which the “HSP Induction in mixed neuron” value in the assay with HSP70b mRNA [2] was “(+) (2-4 fold)”. The “TNF-alpha Inhibition” value in the assay with TNF-α mRNA was “(+) (21-40%)”.

`CC1(C)C(=O)C(=Cc2ccccn2)CN(C(=S)Nc2ccccc2)C1c1ccc(S(C)(=O)=O)cc1` (centres unmarked) [Compound 105, 2-(4-Methanesulfonyl-phenyl)-3,3-dimethyl-4-oxo-5-[1-pyridin-2-yl-methylidene]-piperidine-1-carbothioic acid phenylamide]: the “HSP Induction in mixed neuron” value in the assay with HSP70b mRNA [2] is “(++) (5-8 fold)”. For the same compound, the “TNF-alpha Inhibition” value in the assay on TNF-α mRNA is “(++) (41-60%)”.

As for `CC1(C)CN(Cc2ccccc2)C(c2ccc(S(C)(=O)=O)cc2)C(=Cc2cccc(N3CCOCC3)n2)C1=O` (centres unmarked) [Compound 227, 1-Benzyl-2-(4-methanesulfonyl-phenyl)-5,5-dimethyl-3-[1-(6-morpholin-4-yl-pyridin-2-yl)-methylidene]-piperidin-4-one], the “HSP Induction in mixed neuron” value with HSP70b mRNA [2] is “(++++) (>16 fold)”. Further, the “TNF-alpha Inhibition” value in the assay with TNF-α mRNA was “(++++) (>80%)”.

With `CC1(C)CN(Cc2ccccc2)C(c2ccc(S(C)(=O)=O)cc2)C(=Cc2ccccn2)C1=O` (centres unmarked) [Compound 229, 1-Benzyl-2-(4-methanesulfonyl-phenyl)-5,5-dimethyl-3-[1-pyridin-2-yl-methylidene]-piperidin-4-one], the “HSP Induction in mixed neuron” value in the assay on HSP70b mRNA [2] is “(++) (5-8 fold)”. In the assay on TNF-α mRNA, the “TNF-alpha Inhibition” value is on record as “(++++) (>80%)”.

As to `COc1ccc(OC)c(C2C(=Cc3cccc(N4CCN(C)CC4)n3)C(=O)C(C)(C)CN2Cc2ccc(C)cc2)c1` (centres unmarked) [Compound 234, 2-(2,5-Dimethoxy-phenyl)-5,5-dimethyl-1-(4-methyl-benzyl)-3-[1-[6-(4-methyl-piperazin-1-yl)-pyridin-2-yl]-methylidene]-piperidin-4-one], the “HSP Induction in mixed neuron” value in the assay on HSP70b mRNA [2] is recorded as “(+++) (9-16 fold)”. Besides, in the assay on TNF-α mRNA, the “TNF-alpha Inhibition” value is “(+++) (61-80%)”.
